Test results: patent US4197299A, “Anti-hypertensive derivatives of ergoline-2-thioethers and their sulphoxides” (priority 1977, dated 1980)
Counter-ions that a name gives are not always drawn. Like-named read-outs stand apart in the source and are kept apart here.

Experiments:
[1] = system: BaCl2; assay: Anti BaCl2 activity (spasmolytic) (e)
Source text: (e) Magnus Pflugers Arch. ges. Physiol., 102, 123,

[2] = Pharmacological properties, classical tests on laboratory animals; settings: in vivo
Source text: The compounds claimed in the present invention show interesting pharmacological properties, evidenced by means of classical tests on laboratory animals at extremely low doses.

[3] = system: adrenalin; assay: Antiadrenalin activity in vivo (b)
Source text: (b) F. P. Luduena et al., Arch. Int. Pharmacodyn. 122, 111,
(d) G. Arcari et Coll., Experientia 28, 819,

[4] = system: adrenalin; assay: Antiadrenalin activity in vitro (a); settings: for adrenolytic activity (in words): as seen from the table (in vitro and in vivo); for Antiadrenalin activity in vitro EC50: in vitro (a), adrenolytic
Source text: (a) J. Brugger, Helv. Physiol. Pharm. Acta 3, 117,
(c) G. Arcari & coll., Brit. J. Pharmacol. 34, 700,

[5] = system: 5HT; assay: Anti 5HT activity in vitro (f); settings: for anti-serotininic activity (in words): as seen from the table; for Anti 5HT activity in vitro EC50: in vitro (f)
[6] = system: triptamine; assay: Antitriptaminic activity in vivo (g); settings: sc, read-out: Antitriptaminic activity in vivo ED50
Source text: (g) S. J. Corne et al., Brit. J. Pharmacol., 20, 106, 1963

[7] = Antiasthmatic test (Goose, Immunology 16, 749, 1969); format: in vivo
[8] = system: ptosis due to reserpine; assay: Antagonism to ptosis due to reserpine (antidepressive activity); format: in vivo; settings: po
Source text: Antagonism to ptosis due to reserpine (B. M.

[9] = Analgesic activity; format: in vivo; settings: for analgesic activity (in words): in vivo; for ED100: sc
[10] = system: adrenalin; settings: comparison value with reference (c) Arcari, Brit. J. Pharmacol. 34, 700; cited from earlier work
[11] = system: adrenalin; settings: iv, comparison value with reference (d) Arcari, Experientia 28, 819; cited from earlier work
[12] = in vivo (b), iv, read-out: Antiadrenalin activity in vivo ED50

CSc1[nH]c2cccc3c2c1C[C@@H]1[C@@H]3C[C@@H](COC(=O)N2CCCCC2)CN1C [Compound 9, D-6-methyl-2-methylthio-8beta(piperidinocarbonyloxymethyl)ergoline]
Anti BaCl2 activity EC50 [1]: 2.2 µg/mL | pharmacological properties (in words) [2]: broad spectrum of pharmacologycal properties | ED50 [3, 12]: 0.031 mg/kg | adrenolytic activity (in words) [4]: high | Antiadrenalin activity in vitro EC50 [4]: 1.8 ng/mL | anti-serotininic activity (in words) [5]: high | Anti 5HT activity in vitro EC50 [5]: 1 ng/mL | ED50 ([6]; in vivo (g)): 10 mg/kg

CSc1[nH]c2cccc3c2c1C[C@@H]1[C@@H]3C[C@@H](COC(=O)N2CCCCCC2)CN1C [Compound 10, D-6-methyl-2-methylthio-8beta(perhydroazepinylcarbonyloxymethyl)ergoline]
ED50 ([3]; route not printed there, read-out: adrenolytic ED50): 0.02 mg/kg | ED100 ([7]; po, per os): 1 mg/kg

CSc1[nH]c2cccc3c2c1C[C@@H]1[C@@H]3C[C@@H](COC(=O)N2CCOCC2)CN1C [Compound 11, D-6-methyl-2-methylthio-8beta(morpholinocarbonyloxymethyl)ergoline]
Anti BaCl2 activity EC50 [1]: 10 µg/mL | pharmacological properties (in words) [2]: broad spectrum of pharmacologycal properties | ED50 [3, 12]: 0.0188 mg/kg | adrenolytic activity (in words) [4]: high | Antiadrenalin activity in vitro EC50 [4]: 1.3 ng/mL | anti-serotininic activity (in words) [5]: high | Anti 5HT activity in vitro EC50 [5]: 0.01 ng/mL | ED50 ([6]; in vivo (g)): 0.05 mg/kg

CSc1c2c3c(cccc3n1C)[C@H]1C[C@@H](COC(=O)N(C)C)CN(C)[C@@H]1C2 [Compound 12, D-1,6-dimethyl-2-methylthio-8beta(dimethylaminocarbonyloxymethyl)ergoline maleate]
ED100 [8]: 0.025 mg/kg | analgesic activity (in words) [9]: potent analgesic activity | ED100 [9]: 2.5 mg/kg

CCN(CC)C(=O)OC[C@@H]1C[C@@H]2c3cccc4c3c(c(SC)n4C)C[C@H]2N(C)C1 [Compound 13, D-1.6-dimethyl-2-methylthio-8beta(diethylaminocarbonyloxymethyl)ergoline maleate]
ED100 [8]: 0.5 mg/kg

CSc1c2c3c(cccc3n1C)[C@H]1C[C@@H](COC(=O)N3CCCC3)CN(C)[C@@H]1C2 [Compound 14, D-1,6-dimethyl-2-methylthio-8beta(pyrrolidinocarbonyloxymethyl)ergoline ma leate]
ED100 [8]: 0.025 mg/kg | analgesic activity (in words) [9]: potent analgesic activity | ED100 [9]: 5 mg/kg

CSc1c2c3c(cccc3n1C)[C@H]1C[C@@H](COC(=O)N3CCCCC3)CN(C)[C@@H]1C2 [Compound 15, D-1,6-dimethyl-2-methylthio-8beta(piperidinocarbonyloxymethyl)ergolinemaleate]
ED100 [8]: 0.01 mg/kg

CSc1c2c3c(cccc3n1C)[C@H]1C[C@@H](COC(=O)N3CCCCCC3)CN(C)[C@@H]1C2 [Compound 16, D-1,6-dimethyl-2-methylthio-8beta(perhydroazepinylcarbonyloxymethyl)ergoline maleate]
ED100 [8]: 0.1 mg/kg

CSc1c2c3c(cccc3n1C)[C@H]1C[C@@H](COC(=O)N3CCOCC3)CN(C)[C@@H]1C2 [Compound 17, D-1,6-dimethyl-2-methylthio-8beta(morpholinecarbonyloxymethyl)ergoline]
ED100 [8]: 0.5 mg/kg

CCC(=O)O[C@](Cc1ccccc1)(c1ccccc1)[C@H](C)CN(C)C [D-propoxyphene, reference compound]
ED100 [9]: 10 mg/kg

CN(C)CCCN1c2ccccc2CCc2ccccc21 [imipramine, reference compound]
ED100 [8]: 25 mg/kg

CN1C[C@H](CNC(=O)OCc2ccccc2)C[C@@H]2c3cccc4c3c(cn4C)C[C@H]21 [metergoline, reference compound]
ED50 [6]: 0.062 mg/kg

CO[C@]12C[C@@H](COC(=O)c3cncc(Br)c3)CN(C)[C@@H]1Cc1cn(C)c3cccc2c13 [nicergoline]
Antiadrenalin activity in vitro EC50 [10]: 7 ng/mL | Antiadrenalin activity in vivo ED50 [11]: 20 μg/kg/iv

COc1ccc(Cc2nccc3cc(OC)c(OC)cc23)cc1OC [papaverine, reference compound]
Anti BaCl2 activity EC50 [1]: 8.9 µg/mL

O=C(O)c1cc(=O)c2c(OCC(O)COc3cccc4oc(C(=O)O)cc(=O)c34)cccc2o1 [sodium chromoglycate]
ED100 ([7]; iv): 5 mg/kg | antiasthmatic activity by route ([7]; parenteral versus oral route): active only by the parenteral route, not by the oral route
